This is an account of results in patent US9937225B2, “Topical formulations and uses thereof” (OCULAR TECHNOLOGIES SARL, priority 2012, dated 2018).

A short description of data set [1]: Weight percent of compound 1001 loaded into mixed nanomicelles (entrapment, RP-HPLC). Format: physicochemical. As to conditions: solvent evaporation, HCO-60 4 wt %, Octoxynol-40 0.01 wt %. Here is the method: To determine the entrapment efficiency of the formulation, all the prepared formulations were subjected to entrapment efficiency test. Briefly, formulations were vortex mixed for homogeneity and 1 mL was transferred to a fresh (1.5 mL) eppendorf tube. Each formulation was lyophilized to obtain a solid at the bottom of eppendorf tube. The obtained solid was suspended in 1 mL of organic solvent (diethyl ether) to generate reverse micelles and release the drug into the external organic solvent. The organic solvent was evaporated overnight in speed vacuum. The resultant reversed micelles were resuspended in 1 mL of 2-propanol (dilution factor was taken into account) and further diluted to determine the concentration of compound 1001 entrapped in each micellar preparation with HPLC. The entrapment efficiency of the formulation was calculated with the following formula (wherein MNF=Mixed Nanomicellar Formulation): […]
In vitro analysis of compound 1001 was performed by a reversed phase high performance liquid chromatography (RP-HPLC) method with a Shimadzu HPLC pump (Shimadzu, Shimadzu Scientific instruments, Columbia, Md.), Alcott autosampler (model 718 AL), Shimadzu UV/Visible detector (Shimadzu, SPD-20A/20AV, USA), ODS column (5 μm, 150×4.6 mm) thermostated at 40°±1 C and Hewlett Packard HPLC integrator (Hewlett Packard, Palo Alto, Calif.). The mobile phase was comprised of methanol (MeOH), water and trifluoroacetic acid (TFA) (70:30:0.05% v/v) which was set at a flow rate of 0.5 mL/min. Detection wavelength was set at 272 nm. The sample tray temperature was maintained at 4° C. Calibration curve (0.5 to 5 μg/mL) for compound 1001 was prepared by making appropriate dilutions from the stock solution in 2-propanol. An injection volume of 10 μl was injected into the HPLC column for analysis. All the standards and samples prepared were stored at 4° C. before and during the analysis.
Mixed nanomicellar formulation encapsulating compound 1001 was prepared by solvent evaporation method in two steps: 1) Preparation of basic formulation and 2) rehydration. In step one, compound 1001, HCO-60 and octoxynol-40 were dissolved separately in 0.3 mL of ethyl acetate. These three solutions were mixed together in 15-mL centrifuge tube. The resultant mixture was vortexed to obtain a homogenous solution. Ethyl acetate solvent was removed with speed vacuum to obtain a solid thin film. The residue was kept overnight under high vacuum at room temperature to remove residual organic solvent. In step two, the resultant thin film was hydrated with 1 mL of double distilled deionized water by vortexing the solution. The rehydrated formulation was suspended in 2× phosphate buffer solution, (pH 6.5). It was filtered through 0.2 μm nylon filter membrane to remove the unentrapped drug aggregates and other foreign particulates. The entrapment of compound 1001 was determined by RP-HPLC following disruption of the micelles and solubilization of 1001 in the diluent (2-propanol) as described below
(§1) Weight percent of drug loaded into MNF was determined following the method for entrapment efficiency. Size and polydispersity index of the formulations was determined with Malvern zetasizer as described above. The formulations appear clear and have small size and narrow size distribution.

The nature of data set [2]: Mixed nanomicellar size and polydispersity index (Zetasizer). Format: physicochemical. The following applies: solvent evaporation; HCO-60 4 wt %, Octoxynol-40 0.01 wt %, 1001 initially added 0.120 wt %. Here is the method: The formulation size and polydispersity index were determined with Zetasizer, Malvern Instruments, NJ. In brief, approximately 1 ml of each formulation was transferred to a cuvette and placed in the instrument. A laser beam of light was used to determine the mixed nanomicellar size.
as §1

Consider `C#CC[C@@H](O)/C=C/C=C/C#C[C@@H](O)CCCC(=O)OC(C)C` [compound 1001], for which the “1001 (loaded in mixed micelles) wt %” value worked out at 0.033 wt % in data set [1] (1001 initially added 0.035 wt %); 0.065 wt % in data set [1] (1001 initially added 0.070 wt %); 0.084 wt % in data set [1] (1001 initially added 0.095 wt %); 0.11 wt % in data set [1] (1001 initially added 0.120 wt %); 0.26 wt % in data set [1] (1001 initially added 0.250 wt %); 0.32 wt % in data set [1] (1001 initially added 0.300 wt %). Besides, the “1001 (loaded in mixed micelles) wt %” value in data set [1] (1001 initially added 0.400 wt %) turned out to be 0.45 wt %. In addition, in data set [2], the “Polydispersity Index” value came to 0.320.
